# According to article PMC12190468, “Designing New Chimeric Proline-Rich Antimicrobial Peptides to Enhance Efficacy Toward the ESKAPE+E: Beyond Sequence Extension” (Biomolecules, 2025):
# Read-outs that look alike come from different tables or passages of the source. Ends that are not written are not given here.
# How the values were obtained:
# [1] = system: E. coli ATCC 25922; assay type: cell-based, Escherichia coli
# Method: (§1) Reference bacterial strains, including Escherichia coli BW25113, Escherichia coli ATCC 25922, Klebsiella pneumoniae ATCC 700603, Acinetobacter baumannii ATCC 19606, Enterobacter cloacae ATCC 13047, Pseudomonas aeruginosa ATCC 27853, Staphylococcus aureus ATCC 25923, and Enterococcus faecium ATCC 19434, were obtained from the American Type Culture Collection (ATCC) in Manassas, VA, USA. Strains were stored at −80 °C in glycerol stocks until use. For all experiments, cultures were grown in sterile MHB (Difco Inc., Becton Dickinson, Sparks, MD, USA). Overnight cultures were incubated at 37 °C for approximately 18 h under shacking (140 rpm, then diluted 1:30 in fresh MHB and again shaken at 140 rpm for ~2 h to reach the mid-log phase (OD ~0.3 at 600 nm). The bacterial cultures were then diluted to the desired concentration for experiments. E. coli BW25113 ΔsbmA (Keio collection) was grown in MHB with the addition of 50 μg/mL kanamycin (Sigma, Milan, Italy).
# (§2) Antimicrobial activity was assessed using the Minimum Inhibitory Concentration (MIC) assay, following CLSI guidelines. Briefly, peptides were serially diluted in MHB across a 96-well round-bottom plate (Sarstedt, Milan, Italy), starting with 50 μL in the first well. A mid-log bacterial culture was diluted to 5 × 10^5 CFU/mL, and 50 μL of this suspension was added to each well (except the MHB sterility control wells). […] MIC values were confirmed by at least three independent experiments (n ≥ 3).
# [2] = system: E. coli BW 25113 ΔsbmA; assay type: cell-based, Escherichia coli; details: full MHB, 18 h at 37 °C, mode of at least three independent experiments
# Method: as §1, §2
# [3] = system: E. coli BW 25113; assay type: cell-based, Escherichia coli; details: full MHB, 18 h at 37 °C, mode of at least three independent experiments
# Method: as §1, §2
# [4] = system: E. faecium ATCC 19434; assay type: cell-based, Enterococcus faecium
# Method: as §1, §2
# [5] = system: P. aeruginosa ATCC 27853; assay type: cell-based, Pseudomonas aeruginosa
# Method: as §1, §2
# [6] = system: E. cloacae ATCC 13047; assay type: cell-based, Enterobacter cloacae
# Method: as §1, §2
# [7] = system: E. coli ATCC 25922; assay type: cell-based, Escherichia coli; remark: listed apart in the source
# Method: as §1
# (§3) The Minimal Bactericidal Concentration (MBC) was determined by plating 25 μL from clear MIC wells onto MH-agar Petri dishes (Difco Inc., Becton Dickinson, Sparks, MD, USA), followed by overnight incubation at 37 °C. The MBC was the lowest compound concentration, reducing bacterial viability by ≥99.9%. Results were based on at least three independent experiments (n ≥ 3).
# [8] = system: E. coli BW 25113; assay type: cell-based, Escherichia coli; details: ≥99.9% reduction of viability, after 18 h at 37 °C, mode of at least three independent experiments
# Method: as §1, §3
# [9] = system: E. faecium ATCC 19434; assay type: cell-based, Enterococcus faecium; remark: listed apart in the source
# Method: as §1, §3
# [10] = system: S. aureus ATCC 25923; assay type: cell-based, Staphylococcus aureus
# Method: as §1, §3
# [11] = system: K. pneumoniae ATCC 700603; assay type: cell-based, Klebsiella pneumoniae
# Method: as §1, §3
# [12] = system: A. baumannii ATCC 19606; assay type: cell-based, Acinetobacter baumannii
# Method: as §1, §3
# [13] = system: P. aeruginosa ATCC 27853; assay type: cell-based, Pseudomonas aeruginosa; remark: listed apart in the source
# Method: as §1, §3
# [14] = system: E. cloacae ATCC 13047; assay type: cell-based, Enterobacter cloacae; remark: listed apart in the source
# Method: as §1, §3
# [15] = system: S. aureus ATCC 25923; assay type: cell-based, Staphylococcus aureus; details: ATCC 25923, 18 h
# Method: as §1, §2
# [16] = system: A. baumannii ATCC 19606; assay type: cell-based, Acinetobacter baumannii; details: ATCC 19606, 18 h
# Method: as §1, §2
# [17] = system: K. pneumoniae ATCC 700603; assay type: cell-based, Klebsiella pneumoniae; details: ATCC 700603, 18 h
# Method: as §1, §2
# [18] = system: E. coli BW 25113 ΔsbmA; assay type: cell-based, Escherichia coli; details: ≥99.9% reduction of viability, after 18 h at 37 °C, mode of at least three independent experiments
# Method: as §1, §3
# [19] = system: A549 cells; assay type: cell-based, human
# Method: The human lung carcinoma epithelial cell line (A549) was obtained from the American Type Culture Collection (ATCC) (Manassas, VA, USA). A549 cells were cultured in adhesion flasks (EuroClone, Milan, Italy) with complete Dulbecco’s MEM (DMEM, EuroClone, Milan, Italy) containing high glucose, supplemented with 100 U/mL penicillin, […] streptomycin (Sigma, Milan, Italy), 2 mM L-glutamine, and 10% FBS (Life Technologies, Carlsbad, CA, USA). Cells were incubated at 37 °C with 5% CO2.
# Cytotoxicity in A549 cells was assessed using the MTT assay. After reaching confluence, cells were counted using a Bürker–Türk chamber and diluted to 2 × 10^5 cells/mL in DMEM. A total of 100 μL of this suspension was seeded into 96-well plates (Sarstedt, Milan, Italy) and incubated overnight at 37 °C with 5% CO2. The next day, the spent medium was replaced with 100 μL of fresh DMEM medium containing peptide or water at the desired concentration. After 20 h of incubation, 25 μL of 1 mg/mL MTT (Sigma, Milan, Italy) in PBS was added, and the plates were incubated for 4 h in the dark. […] After overnight incubation, absorbance was measured at 570 nm using a Nanoquant Infinite-M200Pro plate reader (Tecan Trading AG, Switzerland). The cytotoxicity was calculated by comparing the OD of treated samples with that of untreated controls. […]
Sequence,MIC [2],MIC [3],MBC [8],"MIC ([1]; ATCC 25922, 18 h)","MIC (geometric mean) ([1]; ATCC 25922, 18 h)",MIC [15],MIC (geometric mean) [15],MIC [16],"MIC ([5]; ATCC 27853, 18 h)","MIC (geometric mean) ([5]; ATCC 27853, 18 h)","MBC ([7]; ATCC 25922, 18 h)","MBC (geometric mean) ([7]; ATCC 25922, 18 h)","MBC ([9]; ATCC 19434, 18 h)","MBC ([10]; ATCC 25923, 18 h)","MBC ([13]; ATCC 27853, 18 h)","MBC ([14]; ATCC 13047, 18 h)","MBC (geometric mean) ([10]; ATCC 25923, 18 h)","MBC ([11]; ATCC 700603, 18 h)","MBC (geometric mean) ([11]; ATCC 700603, 18 h)",MBC [18],other results
WRIRRRWPRLPRPRWR [Peptide B7-005],2 µM,1 µM,2 µM,,,,,,,,,,,,,,,,,,"MIC ([1]; E. coli ATCC 25922, full MHB, 18 h at 37 °C, mode of at least three independent experiments): 1 µM; MIC ([4]; E. faecium ATCC 19434, full MHB, 18 h at 37 °C, mode of at least three independent experiments): 32 µM; MIC ([5]; P. aeruginosa ATCC 27853, full MHB, 18 h at 37 °C, mode of at least three independent experiments): 16 µM; MIC ([6]; E. cloacae ATCC 13047, full MHB, 18 h at 37 °C, mode of at least three independent experiments): 8 µM; MBC ([7]; E. coli ATCC 25922, ≥99.9% reduction of viability, after 18 h at 37 °C, mode of at least three independent experiments): 2 µM; MBC ([9]; E. faecium ATCC 19434, ≥99.9% reduction of viability, after 18 h at 37 °C, mode of at least three independent experiments): >64 µM; MBC ([10]; S. aureus ATCC 25923, ≥99.9% reduction of viability, after 18 h at 37 °C, mode of at least three independent experiments): 16 µM; MBC ([11]; K. pneumoniae ATCC 700603, ≥99.9% reduction of viability, after 18 h at 37 °C, mode of at least three independent experiments): 4 µM; MBC ([12]; A. baumannii ATCC 19606, ≥99.9% reduction of viability, after 18 h at 37 °C, mode of at least three independent experiments): 4 µM; MBC ([13]; P. aeruginosa ATCC 27853, ≥99.9% reduction of viability, after 18 h at 37 °C, mode of at least three independent experiments): 16 µM; MBC ([14]; E. cloacae ATCC 13047, ≥99.9% reduction of viability, after 18 h at 37 °C, mode of at least three independent experiments): 16 µM"
WRIRRRWPRLPRPRWRPLPFPR [Peptide B7-B6],2 µM,1 µM,1 µM,2 µM,"1,6 µM",8 µM,"10,1 µM",1 µM,8 µM,"10,1 µM",2 µM,"1,6 µM",>64 µM,16 µM,16 µM,4 µM,,,,,"MIC ([4]; ATCC 19434, 18 h): 8 µM; MIC (geometric mean) ([4]; ATCC 19434, 18 h): 10,1 µM"
WRIRRRWPRLPRPRWRPLPFPRPGPRP [Peptide B7-B11],1 µM,0.5 µM,1 µM,1 µM,"0,8 µM",16 µM,"20,2 µM",1 µM,16 µM,"12,7 µM",,,>64 µM,32 µM,16 µM,4 µM,"40,3 µM",8 µM,"6,3 µM",,"MIC [17]: 2 µM; MIC (geometric mean) [16]: 0,8 µM; MIC ([6]; ATCC 13047, 18 h): 2 µM; MBC ([12]; ATCC 19606, 18 h): 2 µM; MBC (geometric mean) ([13]; ATCC 27853, 18 h): 20,2 µM"
WRIRRRWPRLPRPRWRPRFPPP [Peptide B7-T6],1 µM,1 µM,2 µM,0.5 µM,"0,6 µM",16 µM,,1 µM,8 µM,"12,7 µM",0.5 µM,"0,6 µM",>64 µM,32 µM,32 µM,4 µM,"25,4 µM",,,2 µM,"MIC ([4]; ATCC 19434, 18 h): 16 µM; MIC ([6]; ATCC 13047, 18 h): 2 µM; MIC (geometric mean) ([6]; ATCC 13047, 18 h): 2,5 µM; MBC (geometric mean) ([13]; ATCC 27853, 18 h): 25,4 µM"
WRIRRRWPRLPRPRWRPRFPPPFPIPR [Peptide B7-T11],1 µM,1 µM,1 µM,2 µM,"1,3 µM",16 µM,"12,7 µM",1 µM,16 µM,"12,7 µM",2 µM,"1,3 µM",32 µM,16 µM,16 µM,,"20,2 µM",4 µM,"3,2 µM",2 µM,"MIC ([4]; ATCC 19434, 18 h): 4 µM; MIC (geometric mean) ([4]; ATCC 19434, 18 h): 5,0 µM; MIC (geometric mean) [16]: 1,3 µM; MBC (geometric mean) ([9]; ATCC 19434, 18 h): 40,3 µM; MBC ([12]; ATCC 19606, 18 h): 2 µM; MBC (geometric mean) ([12]; ATCC 19606, 18 h): 1,6 µM; MBC (geometric mean) ([13]; ATCC 27853, 18 h): 20,2 µM; Cytotoxicity toward A549 cells (MTT) at 64 µM [19]: cytotoxic"
WRIRRRWPRLPRPRWRPWFPPR [Peptide B7-L6],2 µM,,1 µM,4 µM,"3,2 µM",,,2 µM,4 µM,"5,0 µM",4 µM,"3,2 µM",32 µM,8 µM,,2 µM,"10,1 µM",4 µM,"3,2 µM",2 µM,"MIC [17]: 2 µM; MIC (geometric mean) [17]: 2,5 µM; MIC (geometric mean) [16]: 1,6 µM; MBC (geometric mean) ([9]; ATCC 19434, 18 h): 40,3 µM; MBC ([12]; ATCC 19606, 18 h): 2 µM; MBC (geometric mean) ([12]; ATCC 19606, 18 h): 1,6 µM; MBC (geometric mean) ([14]; ATCC 13047, 18 h): 2,5 µM"
WRIRRRWPRLPRPRWRPWFPPRFPIPR [Peptide B7-L11],2 µM,1 µM,2 µM,2 µM,"2,5 µM",,"5,0 µM",,8 µM,"6,3 µM",2 µM,"2,5 µM",16 µM,,,2 µM,,4 µM,"3,2 µM",2 µM,"MIC [17]: 2 µM; MIC (geometric mean) [17]: 2,5 µM; MBC (geometric mean) ([14]; ATCC 13047, 18 h): 2,5 µM"
